System: LC3-II protein (muscle autophagy) in skeletal muscle (quadriceps)
Experiment: LC3-II western blot (normalized to GAPDH) in quadriceps of mice fed defined diets, with or without autophagy inducer in drinking water
Assay type: in vivo, C57b16/J mice
Settings: 4 weeks ad libitum, 3 mM in drinking water
Description: 10-15 week-old C57b16/J mice were fed during ad libitum for 4 weeks with one of: a standard diet, a diet rich in proteins and poor in carbohydrates (high protein isocaloric), or a diet poor in proteins and rich in carbohydrates (low protein isocaloric). Each group was treated or not with 3 mM of autophagy inducer (e.g., spermidine) in the drinking water. Standard diet was composed of 16% fats (Soybean oil), 20% proteins (casein) and 64% carbohydrates (40% cornstarch, 14% dextrinized cornstarch, 10% sucrose). Low protein diet was composed of 16% fats (Soybean oil), 5% proteins (casein) and 79% carbohydrates (62% cornstarch, 10% dextrinized cornstarch, 7% sucrose). […]
Total protein lysates were extracted from 30-50 mg of tissues homogenized in 20 ml/g of RIPA buffer (150 mM sodium chloride, 50 mM Tris pH: 8, 1% Triton X-100, 0.5% deoxycolate, 0.1% SDS, protease inhibitors cocktail) with a tissue dissociator (gentleMACS Miltenyi Biotec). Protein concentration was determined by BCA assay, and samples were prepared adding 4X LDS sample buffer (Invitrogen). […] Membranes were incubated with LC3 (Novus Biologicals 2220) and GAPDH (Cell Signaling 2118) antibodies and detected with ECL substrates (Pierce). Protein quantification was performed by densitometric analysis of images using ImageJ software. […]

NCCCCNCCCN [spermidine]
muscle autophagy (LC3-II protein amount normalized to GAPDH) (high-protein isocaloric diet (60% proteins), ***p<0.001): synergistically induces muscle autophagy
muscle autophagy (LC3-II protein amount normalized to GAPDH) (low protein isocaloric diet (5% proteins)): inactive

Reference: patent publication US20230285321A1, “COMPOSITIONS AND METHODS USING A COMBINATION OF AUTOPHAGY INDUCER AND HIGH PROTEIN FOR INDUCTION OF AUTOPHAGY” (SOCIETE DES PRODUITS NESTLE S.A., priority 2018, published 2023)
